# In patent US7714014B2, “Targeting GLI proteins in human cancer by small molecules” (The Regents of the University of California, priority 2005, dated 2010):
# “Also recorded” adds a separate entry of the source.
# Key:
# [1] = system: NSCLC cell lines H1299, A549, H460 and colon cancer cell line SW480; test: Cell survival assay (crystal violet), screening; assay type: cell-based, human; conditions: 50 and 100 μM, 3 days, all cancer cell lines tested
# Description: Typically, the small molecule compounds of the present invention were dissolved in DMSO at a concentration of 30 mM. The small molecule compounds were then tested under cell culture conditions at different concentrations ranging from 0, 10, 30, 50, to 100 uM. To determine cell survival after treatment, the cells were incubated with the small molecule compounds in 6-well plates for about 3 days. After removal of the cell culture medium, 1-ml of 0.5% crystal violet solution (prepared in 20% ethanol and 20% methanol) was added to stain the cells for 5 min. Then the crystal violet solution was rinsed clean with tap water. Cell survival was estimated based on the density of crystal stained plates.
# Cancer cell lines were plated in 6-well plates as described, and incubated with 50, and 100 μM of each compound (stocks were dissolved in DMSO at 30 mM) for 3 days. […] Apoptosis analysis was also carried out by using flow cytometry and the results were consistent (data not shown). Therefore, using the rational design design-screen approach described herein, additional small molecule compound, FN1-8, inhibiting GLI3 transcription activation domain (TAF-binding domain) was identified.
# [2] = system: NSCLC cells A549, H358, and H322; test: Time course of cell survival (flow cytometry); assay type: cell-based, human
# Description: The time course of cell survival in NSCLC cells A549, H358, and H322 after administration of small molecule compound FN1-8 was analyzed. A549 cells were incubated with 10 μM and 20 μM FN1-8, and H358 and H322 cells were incubated with 15 μM and 30 μM FN1-8, respectively. Then flow cytometry was used to examine the percentage of living and dead cells at different time points. […] In H358 cells, the cell killing effect of FN1-8 is already apparent by 1 day, and in H322 cells by 2 days. (data not shown).
# NSCLC H460 tumor = test: Mouse Xenograft Model (NSCLC H460); assay type: in vivo
# Description: (§1) The small molecule compound FN1-8 was tested in vivo in the mouse xenograft model bearing human cancer cells. Briefly, female athymic nude mice strain NCRNU-M (5-10 weeks old, 20-25 grams in weight; Taconic, Germantown, N.Y.) was maintained in pathogen-free conditions. Three human cancer cell lines: NSCLC H460, melanoma LOX, (both showing Gli3 activation), and colon cancer HT29 (no Gli3 activation, as a negative control), were used. Ten mice were used in each group and injected s.c. with 3×10^6 cancer cells in the dorsal area in a volume of 100 μl. After inoculation, human cancer cells were allowed to grow in mice for 7 days to become visible tumor nodules. Animals were then injected with small molecule compound FN1-8 at a dose of 50 mg/kg body weight (1 mg/mouse per day). DMSO alone was used as control. The compounds and controls were adjusted in 40 ul volume for i.p. injection in the abdomens of the mice. One mouse was sacrificed within 1 hour after the compound injection (after 6 injections) and its blood was collected. Then mass spectrometry was used to analyze the compound level in the blood sample to confirm the compound absorption into the blood stream of the mice. […] Tumor size was measured every three days, and tumor volumes were calculated using width (x) and length (y) (x^2y/2, where x<y). […]
# In vivo efficacy study of small molecule compound FN1-8 were performed using a Mouse Xenograft Model (NSCLC H460). […] Tumor size (length and width according to their shapes) was measured with a caliper every three days. Tumor volumes were calculated using the equation […].
# (§2) Three weeks after the initial tumor inoculation and the treatment as described above, tumors were dissected from the mice of each group and their weights were measured using a scale.
# The in vivo efficacy study of small molecule compounds FN1-5 and FN1-8 in the Mouse Xenograft Model (NSCLC H460) was repeated using lower doses of the compounds. […] 24 days after the initial tumor inoculation, tumors were dissected from the mice of each group and their weights were measured using a scale. […]
# Melanoma LOX tumor = test: Mouse Xenograft Model (Melanoma LOX); assay type: in vivo; conditions: 50 mg/kg i.p. daily for 2×6 days
# Description: as §1, with “control.” for “control. The compounds and controls were adjusted in 40 ul volume for i.p. injection in the abdomens of the mice. One mouse was sacrificed within 1 hour after the compound injection (after 6 injections) and its blood was collected. Then mass spectrometry was used to analyze the compound level in the blood sample to confirm the compound absorption into the blood stream of the mice.”
# In vivo efficacy study of small molecule compound FN1-8 were performed using a Mouse Xenograft Model (Melanoma Lox). […] Tumor size and tumor volumes were calculated as described above.
# as §2
# [3] = system: Hedgehog signaling pathway in HT29 tumor; test: Semi-quantitative RT-PCR of Hh pathway genes in xenograft tumors; assay type: in vivo, mouse; conditions: HT29 xenograft tumor (negative control)
# Description: (§3) To examine whether the lead compound FN1-8 suppressed tumor growth through inhibition of the Hedgehog signaling pathway in vivo, expression of the key components and direct target genes of the Hh pathway (e.g., Shh, Ptch1, Gli1, Gli2, Gli3, Dvl-3) were analyzed by semi-quantitative RT-PCR using total RNA isolated from the xenograft tumors. GAPDH served as a control. This RT-PCR analysis was performed using a “pooled” tumor from two randomly selected mice of each group with reasonable size tumors.
# [4] = system: Hedgehog signaling pathway in NSCLC tumor (H460); test: as above; assay type: in vivo, mouse
# Description: as §3
smiles,measurement,setting,value
"O=C(NCCc1ccc(O)cc1)C1C(c2ccccc2)=NN(c2ccccc2)C1c1ccccc1 (centres unmarked) [FN1-8, N-(2-(4-Hydroxyphenyl)ethyl)-1,3,5-triphenyl-4,5-dihydro-pyrazole-4-carboxyamide]",cell killing,[1],Dramatic cell killing
same,time after which dose-dependent cell killing effect is shown,"[2]; A549, 10 μM and 20 μM",3 days
same,time by which cell killing effect is apparent,"[2]; H322, 15 μM and 30 μM",≤ 2 days
same,time by which cell killing effect is apparent,"[2]; H358, 15 μM and 30 μM",≤ 1 days
same,tumor growth,NSCLC H460 tumor; 50 mg/kg i.p. daily for 2×6 days,significantly suppressed
same,tumor weight,"NSCLC H460 tumor; 50 mg/kg i.p. daily for 2×6 days, three weeks after inoculation",dramatically decreased
same,tumor weight,"NSCLC H460 tumor; low dose 15 mg/kg i.p. daily for 2×6 days, 24 days after inoculation",decreased
same,tumor growth,Melanoma LOX tumor,dramatically suppressed; also recorded: significantly suppressed
same,tumor weight,Melanoma LOX tumor; three weeks after inoculation,dramatically decreased
same,Hh signaling in tumor (RT-PCR),[3],no noticeable changes
same,Hh signaling in tumor (RT-PCR),[4],inhibited
